# Values quoted from earlier work, collected in patent EP4620459A1, “METFORMIN HYDROCHLORIDE ENTERIC-COATED TABLET” (Yayan (Tianjin) Biomedical Technology Center (Limited …, priority 2023, dated 2025).
# Conditions: nausea, abdominal pain, abdominal discomfort, etc.
compound,measurement,value
CN(C)C(=N)N=C(N)N [metformin],incidence of gastrointestinal adverse reactions,20-30%
